In patent publication US20110314564A1, “ENZYMES AND METHODS FOR HYDROLYSING PHENYLUREAS, CARBAMATES AND ORGANOPHOSPHATES” (priority 2008, published 2011):

What was measured:
PuhA = PuhA (Arthrobacter globiformis, UniProt B8R4L9); assay: Hydrolysis of phenylurea, carbamate and organophosphate substrates by purified PuhA (LCMS / FBBS / A400 assays)
PuhB = PuhB (Mycolicibacterium brisbanense, UniProt B8R4K0); assay: Hydrolysis of phenylurea, carbamate and organophosphate substrates by purified PuhB (LCMS / FBBS / A400 assays)
[1] = system: CN(C)C(=O)Nc1ccc(Cl)c(Cl)c1; assay: purified protein, by the assay type; conditions: pH 6.9, 25.0 °C

Compound | hydrolysis / turnover of the substrate (in words) (PuhA; PuhA) | hydrolysis / turnover of the substrate (in words) (PuhB; PuhB) | further results
CNC(=O)Oc1cccc2ccccc12 [carbaryl] | neither enzyme catalysed the hydrolysis | neither enzyme catalysed the hydrolysis | 
CNC(=O)N(C)c1nnc(C(C)(C)C)s1 [tebuthiuron] | no detectable hydrolysis | no detectable hydrolysis | 
CN(C)C(=O)Nc1ccc(-n2nc(C(C)(C)C)oc2=O)c(Cl)c1 [dimefuron] | no detectable hydrolysis | no detectable hydrolysis | 
Cc1nc(N(C)C)nc(OC(=O)N(C)C)c1C [pirimicarb] | slowly turned over | slowly turned over | catalytic efficiency, fold lower than diuron (PuhA; PuhA): 10^4 fold; catalytic efficiency, fold lower than diuron (PuhB; PuhB): 10^3 fold
PuhB (Mycolicibacterium brisbanense) |  |  | Km ([1]; other: PuhB): 11.0 µM
PuhA (Arthrobacter globiformis) |  |  | Km ([1]; other: PuhA): 55.0 µM
CON(C)C(=O)Oc1ccc(Cl)c(Cl)c1 [carbamate analogue of linuron, 3,4-dichlorophenyl N-methoxy-N-methylcarbamate] | as efficiently as the phenylurea | as efficiently as the phenylurea | 
O=C(Nc1ccccc1)Nc1cnns1 [thidiazuron] | no detectable hydrolysis | no detectable hydrolysis | 
CON(C)C(=O)Nc1ccc(Cl)c(Cl)c1 [linuron] |  |  | turnover rate (kcat), fold higher than that of diuron (PuhA; enzyme not given): ~9 fold; turnover rate (kcat), fold higher than that of diuron (PuhB; enzyme not given): ~9 fold
CCN(CC)C(=O)SCc1ccc(Cl)cc1 [thiobencarb] | neither enzyme catalysed the hydrolysis | neither enzyme catalysed the hydrolysis | 
CCCCN(C)C(=O)Nc1ccc(Cl)c(Cl)c1 [neburon] | no detectable hydrolysis | no detectable hydrolysis | 
CN(C)C(=O)Oc1ccc([N+](=O)[O-])cc1 [DMNPC, N-dimethyl, O-4-nitrophenyl carbamate] | turned over at a higher efficiency than poor phenylurea substrates | turned over at a higher efficiency than poor phenylurea substrates | 
CC1CCCCC1NC(=O)Nc1ccccc1 (stereo not drawn) [siduron] | no detectable hydrolysis | no detectable hydrolysis | 
CCOP(=O)(OCC)Oc1ccc([N+](=O)[O-])cc1 [paraoxon ethyl] | only slightly lower than isoproturon | only slightly lower than isoproturon | hydrolysis / turnover of the substrate (in words) (PuhA; PuhA, listed as ethyl paraoxon): turned over by both proteins; hydrolysis / turnover of the substrate (in words) (PuhB; PuhB, listed as ethyl paraoxon): turned over by both proteins
